Laboratory results as given in patent US20160207930A1 (LEO PHARMA A/S, priority 2013, published 2016).
pIC50: −log10 of the molar value.

Key:
NK1 Receptor = target: T1, NK1 Receptor (Homo sapiens, UniProt P25103); experiment: NK1 receptor mediated intracellular [Ca2+] mobilization in U251 MG cells using FLIPR; type: cell-based; conditions: antagonism of Substance P (EC80), Fluo-4, read-out: NK1R mediated intracellular [Ca^2+] mobilization IC 50
T1 construct: Measurement of NK1 Receptor Mediated Intracellular [Ca^2+]; Mobilization in U251 MG Cells Using FLIPR; endogenous in cells; host or cells: U251 MG cells
T1 sequence (P25103 whole entry): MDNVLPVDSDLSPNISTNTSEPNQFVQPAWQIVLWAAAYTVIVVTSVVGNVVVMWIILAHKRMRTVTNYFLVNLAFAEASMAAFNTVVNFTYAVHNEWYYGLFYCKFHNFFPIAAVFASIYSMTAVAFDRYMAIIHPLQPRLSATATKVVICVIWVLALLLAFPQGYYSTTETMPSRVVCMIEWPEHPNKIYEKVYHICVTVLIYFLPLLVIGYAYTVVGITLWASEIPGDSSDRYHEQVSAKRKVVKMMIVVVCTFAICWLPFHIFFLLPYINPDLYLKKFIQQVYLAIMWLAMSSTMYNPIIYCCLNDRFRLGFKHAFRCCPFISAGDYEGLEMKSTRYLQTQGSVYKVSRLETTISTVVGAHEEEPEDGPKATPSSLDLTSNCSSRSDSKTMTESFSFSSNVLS
Procedure, shortened: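 Fluo-4-loaded U251 MG cells preincubated with compound (0.5% DMSO final), checked 5 min for agonism, then 10 min at 37 °C before Substance P at EC80. Peak fluorescence change on FLIPR, normalized to 100 nM Aprepitant maximal response; IC50 by four-parameter logistic fit, reported as pIC50.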

[1] = Hepatic intrinsic clearance following incubation in human liver microsomes; type: in vitro ADME; conditions: 0.5 μM test compound, NADPH, 0-30 min, scaled to g liver
Procedure, shortened: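 Compound incubated at 37° C with microsomes diluted to 0.55 mg/mL protein in 50 mM potassium phosphate pH 7.4 plus NADPH regenerating system; sampled 0–30 min and analysed by LC-MS/MS. Clint from ln(% parent remaining) slope, scaled to mL/min/g liver; Eh derived assuming 25.7 g/kg liver, 20.7 mL/min/kg blood flow.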

| pIC50 (NK1 Receptor) | Human in vitro Clint [1] [mL/min/g] | SMILES |
| --- | --- | --- |
| 8.46 | >200 | CC(C)c1cc([C@@H](C)N(C)C(=O)N2CCN3C(=O)CC[C@H]3[C@@H]2c2cccc3c2CCC3)cc(C(F)(F)F)c1 [Compound 81, (1S,8aS)-1-(2,3-dihydro-1H-inden-4-yl)-N—((R)-1-(3-isopropyl-5-(trifluoromethyl)phenyl)ethyl)-N-methyl-6-oxohexahydropyrrolo[1,2-a]pyrazine-2(1H)-carboxamide] |
| 9.89 | >200 | Cc1cccc(F)c1[C@H]1[C@@H]2CCC(=O)N2CCN1C(=O)N(C)[C@H](C)c1cc(C(F)(F)F)cc(C(F)(F)F)c1 [Compound 82, (1S,8aS)—N—((R)-1-(3,5-bis(trifluoromethyl)phenyl)ethyl)-1-(2-fluoro-6-methylphenyl)-N-methyl-6-oxohexahydropyrrolo[1,2-a]pyrazine-2(1H)-carboxamide] |
| 7.00 | >200 | C[C@H](c1cc(C(F)(F)F)cc(C(F)(F)F)c1)N(C)C(=O)N1CCN2C(=O)CC[C@H]2[C@@H]1c1ccc(F)cc1 [Compound 85, (1S,8aS)—N—((R)-1-(3,5-bis(trifluoromethyl)phenyl)ethyl)-1-(4-fluorophenyl)-N-methyl-6-oxohexahydropyrrolo[1,2-a]pyrazine-2(1H)-carboxamide] |
